Test results as given in paper PMC9529094, “Identification of natural cytochalasins as leads for neglected tropical diseases drug discovery” (PLoS ONE, 2022).
Like-named read-outs stand apart in the source and are kept apart here.

Columns and labels:
[1] = in vitro; assay type: cell-based; settings: human, 72 h, MTS
Procedure: (§1) THP-1 (human monocyte cell line) cells were cultivated in RPMI medium supplemented with 10% foetal calf serum (FCS) (Cultilab, Campinas, SP, BR) and 1% penicillin and streptomycin (pen/strep—Sigma-Aldrich) at 37°C under 5% CO2, and HFF-1 (human fibroblast) and HepG2 (hepatocytes) cells were cultivated in DMEM without phenol red (Cultilab) supplemented with 10% FBS (Sigma-Aldrich) and 1% pen/strep at 37°C under 5% CO2.
The cytotoxicity of the compounds against HFF-1 fibroblasts and HepG2 hepatocytes was evaluated using the MTS tetrazolium assay (Promega, Madison, WI, USA). HFF-1 fibroblasts were seeded at 4x10^3/well in 96-well culture plates in DMEM without phenol red and incubated overnight (37°C, 5% CO2). HepG2 hepatocytes were seeded at 7x10^3/well in 96-well culture plates in DMEM (Cultilab) with supplements (10% FCS, 1% pen/strep) and incubated overnight (37°C, 5% CO2). The compounds were added in 2-fold serial dilutions at the same concentrations described before, and the plates were incubated as described before. Each compound concentration was evaluated in duplicate. All the plates included doxorubicin (DOX) (Sigma-Aldrich) as a positive control (10–0.01 μM) and untreated wells as a negative control (100% growth). After 72 h, 15 μL of MTS (Promega) was added, and the plates were incubated for 4 h. The absorbance was measured at 490 nm in an automated SpectraMax 384 microplate reader (Sunnyvale, CA, USA), and the data were analysed using GraphPad Prism version 8.0 for CC50 value calculation. The percentage of nonviable cells was determined and compared to the negative control wells (100% growth).

[2] = in vitro; assay type: cell-based; settings: human; 72 h, resazurin; read-out: THP-1 CC50 (μM ± SD)
Procedure: as §1
THP-1 cells were seeded at 2x10^4/well in 96-well culture plates in RPMI 1640 supplemented (10% FCS, 1% pen/strep) and incubated overnight (37°C, 5% CO2). The compounds were added in 2-fold serial dilutions (64–0.12 μM), and the plates were incubated as described before. Each compound concentration was evaluated in duplicate. All the plates included DOX (Sigma-Aldrich) as a positive control (10–0.01 μM) and untreated wells as a negative control (100% growth). After 72 h, 20 μL of resazurin (Sigma-Aldrich) was added, and the plates were incubated for 4 h. The absorbance was measured at 536 and 588 nm in an automated microplate reader SpectraMax Gemini, and the data were analysed using GraphPad Prism version 8.0 for CC50 value calculation. The percentage of nonviable cells was determined and compared to the negative control wells (100% growth).

[3] = system: intracellular T. cruzi Tulahuen LacZ amastigotes; assay: microbe, parasite or virus in culture; assay type: cell-based, Trypanosoma cruzi
Procedure: (§2) The epimastigote forms of the T. cruzi Tulahuen strain, which expresses the E. coli β-galactosidase gene lacZ [11], were grown in liver infusion tryptone (LIT) supplemented with 10% FCS (Cultilab) and 1% pen/strep (Sigma–Aldrich) at 28°C. Metacyclogenesis from epimastigotes to trypomastigotes was induced by the incubation of the epimastigotes in Grace’s insect medium (Sigma-Aldrich, 28°C) every 5 days. After 5 days, the trypomastigote forms were used to infect the HFF-1 cells. The promastigote forms of L. infantum were maintained in Schneider’s insect medium (Sigma-Aldrich) supplemented with 10% FCS (Cultilab) and 1% pen/strep (Sigma-Aldrich) at 28°C and subcultured every 6 or 7 days.
In vitro assays against T. cruzi were performed as described previously. HFF-1 human fibroblasts were seeded at 4x10^3/well in 96-well tissue culture plates in DMEM (Cultilab) without phenol red and then incubated overnight (37°C, 5% CO2). Next, trypomastigotes were added at 4x10^4/well, and the plates were incubated (37°C, 5% CO2). After 24 h, 2-fold serial dilutions of the test compounds were added at concentrations ranging from 64 to 0.12 μM, and the plates were then incubated (37°C, 5% CO2). Each compound concentration was evaluated in duplicate. All the plates included BZ (64–0.12 μM) (Sigma-Aldrich) as a positive control and untreated wells (100% growth) as a negative control. After 120 h, chlorophenol red β-D-galactopyranoside (CPRG, Sigma-Aldrich) was added to each well. The absorbance was measured at 570 nm in an automated SpectraMax 384 microplate reader (Sunnyvale, CA, USA), and the data were analysed using GraphPad Prism version 8.0 (San Diego, CA, USA) for IC50 value calculation.
(§3) The analyses were performed using GraphPad Prism version 8.0 (GraphPad Software, San Diego, CA, USA). Both the IC50 and CC50 values were calculated by adjusting the sigmoid dose-response curves, and the selectivity index (SI) values were determined by CC50/IC50 [16]. Statistical analyses were performed using one-way ANOVA followed by Dunnett’s multiple comparison test.

[4] = system: intracellular L. infantum amastigotes; assay: microbe, parasite or virus in culture; assay type: cell-based, Leishmania infantum
Procedure: as §2
In the intracellular amastigote assay, THP-1 cells were seeded at 2x10^4/well (RPMI-1640, 100 μL) with phorbol 12-myristate 13-acetate (PMA) at 20 ng/mL for differentiation into macrophages. After incubation for 72 h (5% CO2, 37°C), the medium was aspirated, and late-stage L. infantum promastigotes were added (2x10^5/well, 100 μL). Following 24 h of incubation, the medium was aspirated to clear extracellular parasites, and the compounds were added in serial dilutions (2-fold) to final concentrations of 64–0.12 μM. The plates included negative controls (100% growth) and MIL (64–0.12 μM) as a positive control. After 120 h of incubation, the medium was removed, and the cells were fixed in methanol and stained with Giemsa. The average number of intracellular amastigotes per THP-1-cell was determined using an inverted microscope and a cell counter. Growth inhibition is expressed as a percentage of the average number of amastigotes per macrophage in the negative control wells. The IC50 values were obtained using GraphPad Prism version 8.0.
as §3

Structure (SMILES)	CC50 ([1]; read-out: HFF-1 CC50 (μM ± SD))	CC50 ([1]; read-out: HepG2 CC50 (μM ± SD))	CC50 [2]	IC50 ([3]; Trypanosoma cruzi, intracellular amastigotes, Tulahuen LacZ, HFF-1 host cells, 120 h, read-out: T. cruzi IC50 (μM ± SD))	SI^1 (CC50 HFF-1/IC50 T. cruzi) ([3]; selectivity index)	IC50 ([4]; Leishmania infantum, THP-1, 120 h, intracellular amastigotes in THP-1 macrophages, 120 h, read-out: L. infantum IC50 (μM ± SD))	SI^2 (CC50 THP-1/IC50 L. infantum) ([4]; selectivity index)
COc1cccc2c1C(=O)c1c(O)c3c(c(O)c1C2=O)C[C@@](O)(C(=O)CO)C[C@@H]3O[C@H]1C[C@H](N)[C@H](O)[C@H](C)O1 [DOX, doxorubicin, reference compound]	0.69 ± 0.08 µM	0.24 ± 0.06 µM	0.97 ± 0.31 µM				
O=C(Cn1ccnc1[N+](=O)[O-])NCc1ccccc1 [BZ, benznidazole, reference compound]	> 64 µM			5.2 ± 1.87 µM	>12.3		
CCCCCCCCCCCCCCCCOP(=O)([O-])OCC[N+](C)(C)C [MIL, miltefosine, reference compound]			58.5 ± 5.37 µM			1.1 ± 0.16 µM	53.14
